Earlier results, collected in patent publication US5817671A, “5-HT1F agonists” (Eli Lilly and Company, priority 1997, dated 1998).
Values belong to the compound of their own block, whether it stands above or below them.

Assays:
[1] = system: neurogenic inflammation, peptide extravasation; conditions: Moskowitz, Neurology 43(suppl. 3), S16-S20 (1993)
[2] = in vivo
[3] = in vivo; remark: listed apart in the source
[4] = treatment of migraine
[5] = system: exploratory behavior of arthritic rats; conditions: arthritic animals; Larsen and Arnt (1985)
5-HT1F receptor = target: T1, 5-HT1F receptor (Homo sapiens, UniProt P30939); conditions: reported by Weinshank et al., WO93/14201
T1 sequence (P30939 1-366): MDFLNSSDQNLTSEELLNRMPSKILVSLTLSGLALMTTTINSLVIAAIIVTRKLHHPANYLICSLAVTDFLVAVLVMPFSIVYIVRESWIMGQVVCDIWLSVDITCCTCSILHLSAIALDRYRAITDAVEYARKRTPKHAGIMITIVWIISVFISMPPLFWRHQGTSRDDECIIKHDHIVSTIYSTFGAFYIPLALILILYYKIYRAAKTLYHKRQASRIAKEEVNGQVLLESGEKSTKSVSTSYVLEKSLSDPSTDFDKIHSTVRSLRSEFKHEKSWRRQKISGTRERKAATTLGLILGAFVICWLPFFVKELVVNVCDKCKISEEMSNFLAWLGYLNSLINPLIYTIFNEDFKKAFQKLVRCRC

bioavailability (in words) [2]: low bioavailability
duration of action (in words) [3]: relatively short duration of action
Compound: CNS(=O)(=O)Cc1ccc2[nH]cc(CCN(C)C)c2c1 [Sumatriptan]
block of neurogenic inflammation (in words) [1]: neurogenic inflammation is blocked
undesirable side effects (in words) [4]: undesirable side effects, particularly vasoconstriction

Compound: CN(C)CCCC1(c2ccc(F)cc2)OCc2cc(C#N)ccc21 (stereo not drawn) [citalopram]
effect on exploratory behavior (in words) [5]: improve exploratory behavior

Compound: NCCc1c[nH]c2ccc(O)cc12 [serotonin]
inhibition of forskolin stimulated cAMP production (in words) (5-HT1F receptor): inhibit forskolin stimulated cAMP production
